Measured values from patent US20230263822A1, “MODULATION OF FACTOR 11 EXPRESSION” (Ionis Pharmaceuticals, Inc., priority 2008, published 2023).
Read-outs that look alike come from different tables or passages of the source.

Key:
[1] = rat, in vivo, sc, 50 mg/kg
[2] = rat, in vivo, sc, 50 mg/kg; remark: listed apart in the source
[3] = mouse, in vivo, sc, 50 mg/kg
[4] = mouse, in vivo, sc, 50 mg/kg; remark: listed apart in the source
[5] = rat, in vivo, sc, 50 mg/kg; remark: listed apart in the source
[6] = mouse, in vivo, sc, 50 mg/kg; remark: listed apart in the source

Substance	HCT [1] [%]	Lymphocyte [1]	Neutrophil [1]	Platelets [1]	RBC [1]	WBC [1]	hemoglobin [1] [g/dL]	ALT [2] [IU/L]	AST [2] [IU/L]	Albumin [2]	Bilirubin [2] [mg/dL]	BUN [3] [mg/dL]	HCT [4] [%]	Lymphocyte [4] [cells/μL]	Neutrophil [4] [cells/μL]	Platelets [4]	RBC [4]	WBC [4]	hemoglobin [4] [g/dL]	monocytes [4] [cells/μL]	also measured
ISIS 416848: MOE gapmer, nucleobases 1275 to 1318 of SEQ ID NO: 1 (Table 8) (antisense CACAGTTTCTGGCAGGCCTC; MOE gapmer, wing and gap sizes not given here)	35	14316	1874	384	6.0 10^6/μL	17 10^3/μL	11.1	89	236	3	0.14	23	47	5268	1264	953 10^3/μL	9 10^6/μL	7 10^3/μL	14	180	BUN [5]: 26 mg/dL; Creatinine [5]: 64 mg/dL; Total urine protein [5]: 231 mg/dL; Urine protein/creatinine ratio [5]: 3.9; ALT [6]: 153 IU/L; AST [6]: 153 IU/L; Bilirubin [6]: 0.19 mg/dL; Cholesterol [6]: 151 mg/dL
ISIS 416851: MOE gapmer, nucleobases 1275 to 1318 of SEQ ID NO: 1 (Table 8) (antisense GTGCACAGTTTCTGGCAGGC; MOE gapmer, wing and gap sizes not given here)	42	9911	1001	734	7.4 10^6/μL	11 10^3/μL	13.7	64	91	4	0.14	21	47	4162	1619	984 10^3/μL	9 10^6/μL	6 10^3/μL	14	194	BUN [5]: 24 mg/dL; Creatinine [5]: 70 mg/dL; Total urine protein [5]: 286 mg/dL; Urine protein/creatinine ratio [5]: 4.0; ALT [6]: 47 IU/L; AST [6]: 76 IU/L; Bilirubin [6]: 0.19 mg/dL; Cholesterol [6]: 106 mg/dL
ISIS 416852: MOE gapmer, nucleobases 1275 to 1318 of SEQ ID NO: 1 (Table 8) (antisense TGGTGCACAGTTTCTGGCAG; MOE gapmer, wing and gap sizes not given here)	42	11956	836	632	7.2 10^6/μL	13 10^3/μL	13.4	49	87	4	0.15	21	49	3646	1241	903 10^3/μL	9 10^6/μL	5 10^3/μL	14	189	BUN [5]: 25 mg/dL; Creatinine [5]: 60 mg/dL; Total urine protein [5]: 189 mg/dL; Urine protein/creatinine ratio [5]: 3.0; ALT [6]: 49 IU/L; AST [6]: 91 IU/L; Bilirubin [6]: 0.16 mg/dL; Cholesterol [6]: 125 mg/dL
ISIS 416856: MOE gapmer, nucleobases 1275 to 1318 of SEQ ID NO: 1 (Table 8) (antisense GGCATTGGTGCACAGTTTCT; MOE gapmer, wing and gap sizes not given here)	43	14328	3280	740	7.7 10^6/μL	19 10^3/μL	14.1	123	222	4	0.13	21	47	3622	1292	753 10^3/μL	9 10^6/μL	5 10^3/μL	14	151	BUN [5]: 23 mg/dL; Creatinine [5]: 48 mg/dL; Total urine protein [5]: 128 mg/dL; Urine protein/creatinine ratio [5]: 2.7; ALT [6]: 130 IU/L; AST [6]: 129 IU/L; Bilirubin [6]: 0.23 mg/dL; Cholesterol [6]: 109 mg/dL
ISIS 416859: MOE gapmer, nucleobases 1275 to 1318 of SEQ ID NO: 1 (Table 8) (antisense GACGGCATTGGTGCACAGTT; MOE gapmer, wing and gap sizes not given here)	45	14323	1414	853	7.8 10^6/μL	16 10^3/μL	14.0	114	206	5	0.21	18	49	4363	1561	826 10^3/μL	10 10^6/μL	6 10^3/μL	15	229	BUN [5]: 24 mg/dL; Creatinine [5]: 44 mg/dL; Total urine protein [5]: 144 mg/dL; Urine protein/creatinine ratio [5]: 3.3; ALT [6]: 214 IU/L; AST [6]: 293 IU/L; Bilirubin [6]: 0.20 mg/dL; Cholesterol [6]: 160 mg/dL
ISIS 416860: MOE gapmer, nucleobases 1275 to 1318 of SEQ ID NO: 1 (Table 8) (antisense CGGACGGCATTGGTGCACAG; MOE gapmer, wing and gap sizes not given here)	45	13986	1841	669	7.8 10^6/μL	17 10^3/μL	14.1	70	157	4	0.15	25	51	4889	1291	937 10^3/μL	10 10^6/μL	7 10^3/μL	15	161	BUN [5]: 23 mg/dL; Creatinine [5]: 58 mg/dL; Total urine protein [5]: 242 mg/dL; Urine protein/creatinine ratio [5]: 4.6; ALT [6]: 189 IU/L; AST [6]: 160 IU/L; Bilirubin [6]: 0.23 mg/dL; Cholesterol [6]: 152 mg/dL
